Legend:
mice = assay: Toxicity: survival/mortality of mice after intravenous administration or injections; type: in vivo; conditions: three injections of 12.5 mg/kg/day; result in words
Protocol: (§1) Several toxicity measurements are carried out with suspensions of particles obtained by this process.

[1] = as above; type: in vivo; conditions: mouse, in vivo; intravenous, three successive doses of 10 mg/kg/day; read-out: mice that do not survive for 15 days
Protocol: as §1

COc1cccc2c1C(=O)c1c(O)c3c(c(O)c1C2=O)C[C@@](O)(C(=O)CO)C[C@@H]3O[C@H]1C[C@H](N)[C@H](O)[C@H](C)O1 [doxorubicin]
mice that survive (mice): none of the mice survives
mortality at 360 h [1]: 27.5%
